Experimental data taken from patent US20230124095A1 (AMORPHICAL LTD., priority 2020, published 2023).

Legend:
[1] = test system: Cathepsin B; test: Cathepsin B activity in Lewis lung carcinoma tumors of treated mice (fluorometric kit); assay type: in vivo; conditions: 12 days treatment; vs untreated (saline) group
Experimental: 8 tumors were analyzed per group. For the assay, 20 mg from each extracted tumor were weighed and lysed. Measurements were done using Cathepsin B Activity Assay Kit (Fluorometric) (ab65300) by Abcam (Cambridge, UK). The assays were performed on tumors from the two groups. The lysed samples were treated per Kit instructions, i.e., incubated with Cathepsin B substrate for 1 hour at 37° C. to identify the activity of the lysosomal protein.
(§1) The study was performed with C57BL/6 mice at the age of 6-8 weeks. Eight mice were allocated into each study group. Light anesthesia was administered by isoflurane inhalation. LLC cells in a concentration of 2.5×10^5 cells in 100 μl PBS were intradermally injected (subcutaneously) into the right flank of each mice. […] Cisplatin was given according to manufacturer instructions.
(§2) Ten days following tumor inoculation, when the tumor reached a volume of about >60 mm^3, mice were randomly allocated into the study groups. Various treatments were administered to each group starting Day 10 onwards. The treatment duration lasted for 12 days.
(§3) Both Cathepsin B and S activities were measured using samples from the same groups according to kit instructions. […] Cathepsin B Activity Assay Kit (Fluorometric) (ab65300) and Cathepsin S Activity Assay Kit (Fluorometric) (ab65303) by Abcam (Cambridge, UK) were used.

[2] = test system: Cathepsin S; test: Cathepsin S activity in Lewis lung carcinoma tumors of treated mice (fluorometric kit); assay type: in vivo; conditions: 12 days treatment; vs untreated (saline) group
Experimental: as §1, §2, §3

[3] = test system: Lewis Lung Carcinoma (LLC); test: Tumor growth in subcutaneous LLC model, ACC with different stabilizers given IP or IV; assay type: in vivo, mice; conditions: group 2F, per manufacturer
[4] = test system: Experimental Autoimmune Encephalomyelitis (EAE) model; test: Clinical score in MOG-induced EAE multiple sclerosis model in mice; assay type: in vivo

| Molecule | reduction in Cathepsin B activity in tumors [1] [%] | increase in Cathepsin S activity in tumors [2] [%] | Mean tumor volume on Day 25 [3] [mm^3] | day on which paralysis signs started ([4]; C57BL mice, n=10 per group) [days] | score of the paralysis signs at plateau ([4]; after days 15 and 16 of treatments) | score of the paralysis signs at the end of the study ([4]; study duration 55 days) | paralysis progression at the initial phase ([4]; until day 15, compared to mice given saline or ACC) |
| --- | --- | --- | --- | --- | --- | --- | --- |
| N.N.[Cl][Pt][Cl] [Cisplatin] | 43 | 30 | 1342 |  |  |  |  |
| Glatiramer acetate [Copaxone] |  |  |  | 11 | the same paralysis score | higher score | slower paralysis progression |
